# US20250313535A1, “ALPHA 4 BETA 7 INTEGRIN MODULATORS AND USES THEREOF” (DICE MOLECULES SV, INC., priority 2022, published 2025)
# Key:
# [1] = target: α4β1 integrin (Homo sapiens (Human), UniProt P05556+P13612); test: Integrin Adhesion Assay: Protocol 5 (VCAM-coated plate, RPMI-8866 cells with stable LOF mutation of the ITGB7 gene); assay type: cell-based; settings: RPMI-8866 cells with stable LOF mutation of the ITGB7 gene; read-out: Mean IC50 α4β1 KO^b
# How it was run: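 RPMI-8866 B cells with CRISPR/Cas9 ITGB7 knockout (clonal, verified by flow cytometry) adhered to VCAM-coated wells for 1 h at 37° C in HEPES/NaCl buffer with 1 mM MnCl2, 0.1 mM CaCl2, 1% BSA, 1% DMSO. Bound cells quantified by CellTiter-Glo luminescence after washing; % inhibition versus DMSO and control, 4-parameter fit.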
# [2] = target: α4β7 integrin (Homo sapiens (Human), UniProt P13612+P26010); test: Integrin Adhesion Assay: Protocol 4 (MAdCAM-coated plate, RPMI-8866 cells with stable LOF mutation of the ITGB1 gene); assay type: cell-based; settings: RPMI-8866 cells with stable LOF mutation of the ITGB1 gene; read-out: Mean IC50 α4β7 KO^a
# α4β7 integrin, sequence (P13612 34-1032): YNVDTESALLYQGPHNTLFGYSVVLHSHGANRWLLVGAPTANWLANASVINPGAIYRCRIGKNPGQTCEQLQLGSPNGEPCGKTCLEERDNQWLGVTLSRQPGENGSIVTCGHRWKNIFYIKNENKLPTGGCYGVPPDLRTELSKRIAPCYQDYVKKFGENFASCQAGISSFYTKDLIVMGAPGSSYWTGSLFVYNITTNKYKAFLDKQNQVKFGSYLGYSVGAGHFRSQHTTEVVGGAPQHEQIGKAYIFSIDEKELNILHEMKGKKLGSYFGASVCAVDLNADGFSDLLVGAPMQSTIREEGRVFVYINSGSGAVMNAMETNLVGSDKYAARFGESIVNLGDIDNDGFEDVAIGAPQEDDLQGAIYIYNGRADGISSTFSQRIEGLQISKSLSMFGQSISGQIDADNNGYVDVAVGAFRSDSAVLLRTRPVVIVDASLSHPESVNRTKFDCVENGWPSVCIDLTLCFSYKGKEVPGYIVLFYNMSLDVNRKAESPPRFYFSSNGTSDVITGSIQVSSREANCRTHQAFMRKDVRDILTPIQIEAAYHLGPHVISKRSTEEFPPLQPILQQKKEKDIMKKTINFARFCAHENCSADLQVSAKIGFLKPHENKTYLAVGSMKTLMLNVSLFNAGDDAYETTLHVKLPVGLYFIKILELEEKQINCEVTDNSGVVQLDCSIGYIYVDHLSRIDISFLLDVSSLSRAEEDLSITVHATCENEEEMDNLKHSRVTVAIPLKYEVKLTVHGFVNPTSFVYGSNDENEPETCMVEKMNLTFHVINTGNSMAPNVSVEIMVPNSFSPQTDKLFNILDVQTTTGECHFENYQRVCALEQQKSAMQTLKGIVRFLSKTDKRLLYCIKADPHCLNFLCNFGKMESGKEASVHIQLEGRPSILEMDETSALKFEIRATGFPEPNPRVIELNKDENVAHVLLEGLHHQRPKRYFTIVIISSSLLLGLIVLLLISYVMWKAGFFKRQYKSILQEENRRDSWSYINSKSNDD
# α4β7 integrin, sequence (P26010 20-798): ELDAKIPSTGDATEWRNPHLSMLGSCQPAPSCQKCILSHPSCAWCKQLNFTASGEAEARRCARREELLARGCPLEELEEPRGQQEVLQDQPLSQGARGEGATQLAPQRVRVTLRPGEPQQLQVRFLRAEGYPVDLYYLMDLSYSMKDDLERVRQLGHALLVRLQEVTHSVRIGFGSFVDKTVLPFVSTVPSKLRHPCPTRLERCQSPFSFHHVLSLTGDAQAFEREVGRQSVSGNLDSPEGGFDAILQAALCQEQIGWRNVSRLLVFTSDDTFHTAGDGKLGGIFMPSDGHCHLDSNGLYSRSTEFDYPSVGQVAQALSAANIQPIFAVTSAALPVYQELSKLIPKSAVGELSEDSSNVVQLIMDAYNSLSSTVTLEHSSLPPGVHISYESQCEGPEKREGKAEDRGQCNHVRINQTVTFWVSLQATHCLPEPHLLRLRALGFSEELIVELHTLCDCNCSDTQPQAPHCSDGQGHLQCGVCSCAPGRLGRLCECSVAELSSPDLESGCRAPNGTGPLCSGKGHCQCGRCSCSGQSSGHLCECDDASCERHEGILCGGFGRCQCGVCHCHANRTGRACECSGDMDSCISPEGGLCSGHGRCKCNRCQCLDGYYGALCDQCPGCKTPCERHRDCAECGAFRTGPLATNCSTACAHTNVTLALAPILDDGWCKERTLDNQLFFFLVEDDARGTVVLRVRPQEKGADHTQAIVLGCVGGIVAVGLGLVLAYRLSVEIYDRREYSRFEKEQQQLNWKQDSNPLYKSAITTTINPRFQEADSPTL
# How it was run: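 RPMI-8866 cells with CRISPR/Cas9 knockout of ITGB1 (2×10^6/mL) were added to MAdCAM-coated wells with compound (1% DMSO) in HEPES/NaCl buffer with 1 mM MnCl2, 0.1 mM CaCl2 and 1% BSA, then incubated 1 h at 37 °C. After four washes, adherent cells were quantified by CellTiter-Glo luminescence. Percent inhibition versus DMSO and control compound was fitted to 4-parameter curves.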
# α4β1 integrin, sequence (P13612 34-1032): as the sequence (P13612 34-1032) above
# α4β1 integrin, sequence (P05556 21-798): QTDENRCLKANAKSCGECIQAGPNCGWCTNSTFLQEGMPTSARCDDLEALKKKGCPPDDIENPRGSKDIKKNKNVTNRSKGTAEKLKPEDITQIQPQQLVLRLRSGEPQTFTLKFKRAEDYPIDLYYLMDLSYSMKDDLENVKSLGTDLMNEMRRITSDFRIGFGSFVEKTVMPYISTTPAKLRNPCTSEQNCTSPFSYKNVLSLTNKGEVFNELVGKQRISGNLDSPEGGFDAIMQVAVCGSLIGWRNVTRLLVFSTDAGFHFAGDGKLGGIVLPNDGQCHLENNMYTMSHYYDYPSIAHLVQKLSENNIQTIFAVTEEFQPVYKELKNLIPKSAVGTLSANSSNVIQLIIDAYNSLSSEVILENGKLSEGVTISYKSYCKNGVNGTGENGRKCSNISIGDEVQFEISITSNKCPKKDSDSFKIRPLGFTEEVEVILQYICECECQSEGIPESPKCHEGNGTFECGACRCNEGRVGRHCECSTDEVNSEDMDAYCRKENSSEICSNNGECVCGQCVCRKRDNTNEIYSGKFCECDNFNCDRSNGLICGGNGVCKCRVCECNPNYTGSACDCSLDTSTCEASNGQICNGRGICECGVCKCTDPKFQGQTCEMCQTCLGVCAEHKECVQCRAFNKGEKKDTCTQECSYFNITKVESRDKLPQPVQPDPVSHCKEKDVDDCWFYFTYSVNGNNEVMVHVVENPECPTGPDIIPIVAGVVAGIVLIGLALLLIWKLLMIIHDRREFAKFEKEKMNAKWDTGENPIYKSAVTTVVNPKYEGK
SMILES,IC50 [1] [nM],IC50 [2] [nM]
COc1ccc2cccnc2c1-c1cccc2c(C[C@H](NC(=O)c3c(F)cccc3F)C(=O)O)cccc12 [Compound 501],> 1000,100 to 1000
COCCN1CCC(C(=O)N[C@@H](Cc2cccc3c(-c4c(C(F)(F)F)c5ccccc5n(C)c4=O)cccc23)C(=O)O)(C(F)(F)F)CC1 [Compound 502],100 to 1000,< 10
CCOCCN1CCC(C(=O)N[C@@H](Cc2cccc3c(-c4c(C(F)(F)F)c5ccccc5n(C)c4=O)cccc23)C(=O)O)(C(F)(F)F)CC1 [Compound 503],100 to 1000,10 to 100
Cn1c(=O)c(-c2cccc3c(C[C@H](NC(=O)C4(C(F)(F)F)CCN(C5CCOCC5)CC4)C(=O)O)cccc23)c(C(F)(F)F)c2ccccc21 [Compound 504],> 1000,10 to 100
Cn1c(=O)c(-c2cccc3c(C[C@H](NC(=O)C4(C(F)(F)F)CCN(C5CCS(=O)(=O)CC5)CC4)C(=O)O)cccc23)c(C(F)(F)F)c2ccccc21 [Compound 505],> 1000,10 to 100
Cn1c(=O)c(-c2cccc3c(C[C@H](NC(=O)C4(C)CN(C5CCOC(C(F)(F)F)C5)C4)C(=O)O)cccc23)c(C(F)(F)F)c2ccccc21 (stereo partly drawn) [Compound 506],> 1000,100 to 1000
Cn1c(=O)c(-c2cccc3c(C[C@H](NC(=O)C4(C(F)(F)F)CCN(C5COC(C(F)(F)F)C5)CC4)C(=O)O)cccc23)c(C(F)(F)F)c2ccccc21 (stereo partly drawn) [Compound 507],> 1000,100 to 1000
Cn1c(=O)c(-c2cccc3c(C[C@H](NC(=O)C4(C(F)(F)F)CCN(C5CCOC5(C)C)CC4)C(=O)O)cccc23)c(C(F)(F)F)c2ccccc21 (stereo partly drawn) [Compound 508],100 to 1000,10 to 100
CC1OCCC1N1CCC(C(=O)N[C@@H](Cc2cccc3c(-c4c(C(F)(F)F)c5ccccc5n(C)c4=O)cccc23)C(=O)O)(C(F)(F)F)CC1 (stereo partly drawn) [Compound 509],100 to 1000,< 10
CC1OCC1N1CCC(C(=O)N[C@@H](Cc2cccc3c(-c4c(C(F)(F)F)c5ccccc5n(C)c4=O)cccc23)C(=O)O)(C(F)(F)F)CC1 (stereo partly drawn) [Compound 510],100 to 1000,< 10
Cn1c(=O)c(-c2cccc3c(C[C@H](NC(=O)C4(C(F)(F)F)CCN(C5CCOCC5C(F)(F)F)CC4)C(=O)O)cccc23)c(C(F)(F)F)c2ccccc21 (stereo partly drawn) [Compound 511],> 1000,10 to 100
Cn1c(=O)c(-c2cccc3c(C[C@H](NC(=O)C4(C(F)(F)F)CCN(C5COCC5(F)F)CC4)C(=O)O)cccc23)c(C(F)(F)F)c2ccccc21 (stereo partly drawn) [Compound 512],100 to 1000,< 10
Cn1c(=O)c(-c2cccc3c(C[C@H](NC(=O)C4(C(F)(F)F)CCN(C5COCC5C(F)(F)F)CC4)C(=O)O)cccc23)c(C(F)(F)F)c2ccccc21 (stereo partly drawn) [Compound 513],> 1000,10 to 100
Cn1c(=O)c(-c2cccc3c(C[C@H](NC(=O)C4(C(F)(F)F)CCN(C5CCOC(C(F)(F)F)C5)CC4)C(=O)O)cccc23)c(C(F)(F)F)c2ccccc21 (stereo partly drawn) [Compound 514],> 1000,10 to 100
CC(N1CCC(C(=O)N[C@@H](Cc2cccc3c(-c4c(C(F)(F)F)c5ccccc5n(C)c4=O)cccc23)C(=O)O)(C(F)(F)F)CC1)C(F)(F)F (stereo partly drawn) [Compound 515],> 1000,100 to 1000
Cn1c(=O)c(-c2cccc3c(C[C@H](NC(=O)C4(C(F)(F)F)CCN(C(c5ccccc5)C(F)(F)F)CC4)C(=O)O)cccc23)c(C(F)(F)F)c2ccccc21 (stereo partly drawn) [Compound 516],> 1000,> 1000
Cc1cccc(F)c1C(=O)N[C@@H](Cc1cccc2c(-c3c(C(F)(F)F)c4cc(CCN5CC(F)C5)ccc4n(C)c3=O)cccc12)C(=O)O [Compound 517],> 1000,< 10
CC[C@H](N1CCC(C(=O)N[C@@H](Cc2cccc3c(-c4c(C(F)(F)F)c5ccccc5n(C)c4=O)cccc23)C(=O)O)(C(F)(F)F)CC1)C(F)(F)F [Compound 518],> 1000,> 1000
CC(=O)CN1CCC(C(=O)N[C@@H](Cc2cccc3c(-c4c(C(F)(F)F)c5ccccc5n(C)c4=O)cccc23)C(=O)O)(C(F)(F)F)CC1 [Compound 519],100 to 1000,< 10
Cn1c(=O)c(-c2cccc3c(C[C@H](NC(=O)C4(C)CCCN(CC5COC5)C4)C(=O)O)cccc23)c(C(F)(F)F)c2ccccc21 (stereo partly drawn) [Compound 520],> 1000,100 to 1000
Cn1c(=O)c(-c2cccc3c(C[C@H](NC(=O)C4(C)CC5(CN(CC(F)(F)F)C5)C4)C(=O)O)cccc23)c(C(F)(F)F)c2ccccc21 [Compound 521],> 1000,100 to 1000
Cn1c(=O)c(-c2cccc3c(C[C@H](NC(=O)C4(C)CCC5(CCOCC5)CC4)C(=O)O)cccc23)c(C(F)(F)F)c2ccccc21 [Compound 522],> 1000,10 to 100
COc1ccc2ccncc2c1-c1cccc2c(C[C@H](NC(=O)C3(C(F)(F)F)CCN(CC(F)(F)F)CC3)C(=O)O)cccc12 [Compound 523],100 to 1000,< 10

SMILES,IC50 [1] [nM],IC50 [2] [nM]
O=C(O)[C@H](Cc1cccc2c(-c3c(C(F)(F)F)ccc4cccnc34)cccc12)NC(=O)C1(C(F)(F)F)CCN(CC(F)(F)F)CC1 [Compound 524],> 1000,10 to 100
O=C(O)[C@H](Cc1cccc2c(-c3cc4ccccc4cn3)cccc12)NC(=O)C1(C(F)(F)F)CCN(C2COC2)CC1 [Compound 525],> 1000,10 to 100
COc1cccc(OC)c1-c1cccc2c(C[C@H](NC(=O)c3c(C)cccc3F)C(=O)O)cccc12 [Compound 526],> 1000,10 to 100
COc1ccnc(OC)c1-c1cccc2c(C[C@H](NC(=O)c3c(C)cccc3F)C(=O)O)cccc12 [Compound 527],> 1000,10 to 100
Cn1c(=O)c(-c2cccc3c(C[C@H](NC(=O)C4(C(F)(F)F)CCN(CCF)CC4)C(=O)O)cccc23)c(C(F)(F)F)c2ccccc21 [Compound 530],100 to 1000,< 10
COc1cc(CCN(C)C)cc(OC)c1-c1cccc2c(C[C@H](NC(=O)C3(C(F)(F)F)CCN(CC(F)(F)F)CC3)C(=O)O)cccc12 [Compound 531],100 to 1000,< 10
CN1CCCC1c1cc(-c2cccc3c(C[C@H](NC(=O)C4(C(F)(F)F)CCN(CC(F)(F)F)CC4)C(=O)O)cccc23)c2cnccc2c1 (stereo partly drawn) [Compound 532],> 1000,10 to 100
Cn1c(=O)c(-c2cccc3c(C[C@H](NC(=O)C4(C(F)(F)F)CCN(CC5(F)CCC5)CC4)C(=O)O)cccc23)c(C(F)(F)F)c2ccccc21 [Compound 533],> 1000,10 to 100
Cn1c(=O)c(-c2cccc3c(C[C@H](NC(=O)C4(C(F)(F)F)CCN(CC(C)(F)F)CC4)C(=O)O)cccc23)c(C(F)(F)F)c2ccccc21 [Compound 534],100 to 1000,10 to 100
CCCN1CCC(C(=O)N[C@@H](Cc2cccc3c(-c4c(C(F)(F)F)c5ccccc5n(C)c4=O)cccc23)C(=O)O)(C(F)(F)F)CC1 [Compound 535],> 1000,10 to 100
Cn1c(=O)c(-c2cccc3c(C[C@H](NC(=O)C4(C(F)(F)F)CCN(CCC(F)(F)F)CC4)C(=O)O)cccc23)c(C(F)(F)F)c2ccccc21 [Compound 536],> 1000,10 to 100
Cn1c(=O)c(-c2cccc3c(C[C@H](NC(=O)C4(C(F)(F)F)CCN(CC(F)F)CC4)C(=O)O)cccc23)c(C(F)(F)F)c2cc(C(F)(F)F)ccc21 [Compound 537],> 1000,10 to 100
Cn1c(=O)c(-c2cccc3c(C[C@H](NC(=O)C4(C(F)(F)F)CCN(CC#N)CC4)C(=O)O)cccc23)c(C(F)(F)F)c2ccccc21 [Compound 538],> 1000,10 to 100
O=C(O)[C@H](Cc1cccc2c(-c3nccc4ccc(CCCN5CCC(F)(F)CC5)cc34)cccc12)NC(=O)C1(C(F)(F)F)CCN(CC(F)(F)F)CC1 [Compound 539],> 1000,< 10
COc1cccc(CN2CCCCC2)c1-c1cccc2c(C[C@H](NC(=O)c3c(F)cccc3C(C)C)C(=O)O)cccc12 [Compound 540],100 to 1000,< 10
COc1cccc(CN2CCCCC2)c1-c1cccc2c(C[C@H](NC(=O)c3c(F)cccc3C(F)(F)F)C(=O)O)cccc12 [Compound 542],100 to 1000,< 10
COc1cccc(CN2CCCCC2)c1-c1cccc2c(C[C@H](NC(=O)c3c(F)ccc(F)c3C)C(=O)O)cccc12 [Compound 543],> 1000,< 10
COc1cccc(CN2CCCCC2)c1-c1cccc2c(C[C@H](NC(=O)c3c(C)cc(C4CC(F)(F)C4)cc3F)C(=O)O)cccc12 [Compound 544],100 to 1000,< 10
COc1cccc(CN2CCCCC2)c1-c1cccc2c(C[C@H](NC(=O)c3c(C)cc(NCC(F)(F)F)cc3F)C(=O)O)cccc12 [Compound 545],100 to 1000,< 10
CCc1cccc(F)c1C(=O)N[C@@H](Cc1cccc2c(-c3c(CN4CCCCC4)cccc3OC)cccc12)C(=O)O [Compound 546],100 to 1000,< 10
O=C(O)[C@H](Cc1cccc2c(-c3nccc4ccc(CCCN5CCCCC5)cc34)cccc12)NC(=O)C1(C(F)(F)F)CCN(C2COC2)CC1 [Compound 547],100 to 1000,< 10
CC1(C(=O)N[C@@H](Cc2cccc3c(-c4nccc5ccc(CCCN6CCCCC6)cc45)cccc23)C(=O)O)CC2CCC(C1)N2CC(F)(F)F (stereo partly drawn) [Compound 548],> 1000,< 10
